Assay results reported in paper PMC9942557, “Bolaamphiphile Analogues of 12-bis-THA Cl2 Are Potent Antimicrobial Therapeutics with Distinct Mechanisms of Action against Bacterial, Mycobacterial, and Fungal Pathogens” (mSphere, 2022).

Experiments:
P. aeruginosa PAO1 = test: Fixed-concentration (0.25× MIC bolalipid) synergy broth microdilution; format: cell-based, Pseudomonas aeruginosa; settings: P. aeruginosa PAO1
P. aeruginosa NCTC 13437 = test: as above; format: cell-based, Pseudomonas aeruginosa; settings: P. aeruginosa NCTC 13437
[1] = in the presence of 0.25× MIC Octa-bola (Table S1)
[2] = in the presence of 0.25× MIC Octa-C10 (Table S1)

In the case of CC1(C)S[C@@H]2[C@H](NC(=O)[C@H](N)c3ccccc3)C(=O)N2[C@H]1C(=O)O [Ampicillin], the MIC of antibiotic (P. aeruginosa PAO1; No bola (Table S1)) is reported as > 512 µg/mL, the MIC of antibiotic (P. aeruginosa PAO1; [1]) is reported as > 512 µg/mL and the MIC of antibiotic (P. aeruginosa NCTC 13437; No bola (Table S1)) is reported as > 512 µg/mL. For the same molecule, the MIC of antibiotic (P. aeruginosa NCTC 13437; [2]) was > 512 µg/mL and the MIC of antibiotic (P. aeruginosa NCTC 13437; [1]) was > 512 µg/mL.
CC(C)(O/N=C(\C(=O)N[C@@H]1C(=O)N2C(C(=O)[O-])=C(C[n+]3ccccc3)CS[C@H]12)c1csc(N)n1)C(=O)O [Ceftazidime] was tested, and the MIC of antibiotic (P. aeruginosa PAO1; No bola (Table S1)) was 2 µg/mL, the MIC of antibiotic (P. aeruginosa PAO1; [1]) was 2 µg/mL and the MIC of antibiotic (P. aeruginosa NCTC 13437; No bola (Table S1)) was > 128 µg/mL. For the same molecule, the MIC of antibiotic (P. aeruginosa NCTC 13437; [2]) was > 128 µg/mL and the MIC of antibiotic (P. aeruginosa NCTC 13437; [1]) was > 128 µg/mL.
O=C(O)c1cn(C2CC2)c2cc(N3CCNCC3)c(F)cc2c1=O [Ciprofloxacin] was tested, and the MIC of antibiotic (P. aeruginosa PAO1; No bola (Table S1)) was 0.125 µg/mL, the MIC of antibiotic (P. aeruginosa PAO1; [2]) was 1 µg/mL and the MIC of antibiotic (P. aeruginosa PAO1; [1]) was 1 µg/mL. The MIC of antibiotic (P. aeruginosa NCTC 13437; No bola (Table S1)) was 32 µg/mL, the MIC of antibiotic (P. aeruginosa NCTC 13437; [2]) was > 64 µg/mL and the MIC of antibiotic (P. aeruginosa NCTC 13437; [1]) was > 64 µg/mL.
Work on C[C@H]1c2cccc(O)c2C(=O)C2=C(O)[C@]3(O)C(=O)C(C(N)=O)=C(O)[C@@H](N(C)C)[C@@H]3[C@@H](O)[C@@H]21 [Doxycyline] yielded an MIC of antibiotic (P. aeruginosa PAO1; No bola (Table S1)) of 32 µg/mL, an MIC of antibiotic (P. aeruginosa PAO1; [2]) of 64 µg/mL and an MIC of antibiotic (P. aeruginosa PAO1; [1]) of 128 µg/mL. For the same molecule, the MIC of antibiotic (P. aeruginosa NCTC 13437; No bola (Table S1)) was > 256 µg/mL, the MIC of antibiotic (P. aeruginosa NCTC 13437; [2]) was > 256 µg/mL and the MIC of antibiotic (P. aeruginosa NCTC 13437; [1]) was > 256 µg/mL.
